Reference: US12545677B2, “Compounds useful as factor XIa inhibitors” (JANSSEN PHARMACEUTICA NV, priority 2020, dated 2026)
Read-outs that look alike come from different tables or passages of the source.

Key:
Factor XIa = Factor XIa (Homo sapiens, UniProt P03951); assay: Factor XIa inhibition assay using fluorophore-quencher pair peptide substrate; format: biochemical
Excerpt: Biological Example 1: Factor XIa Inhibition Assay
Using Fluorophore-quencher Pair Peptide Substrate
A fluorescence intensity-based assay was used to monitor inhibition of Factor XIa. The peptide substrate, 5Fam-[…]-K5Tamra (purchased from New England Peptide) was chosen based on the […]. Conversion of zymogen FIX to its activated form, FIXa, occurs by proteolytic cleavage by FXIa at two sites, Arg146 and Arg180. The custom peptide used in this assay was based on the Arg146 cleavage site. The peptide substrate was designed with a fluorophore-quencher pair, where the fluorescence is quenched until FXIa cleaves the 8-mer peptide after the Arg residue.
Factor XIa FLINT assay was used with the following 5Fam-[…]-K5Tamra assay buffer: 50 mM Tris, pH 7.5, 100 mM NaCl, 5 mM CaCl2, 0.1 mg/mL BSA, 0.03% CHAPS was used. Assay buffer was prepared by mixing all ingredients fresh. 2×5Fam-[…]-K5Tamra peptide substrate was first prepared in 100% DMSO, then diluted 10 mM to 3 mM in 100% DMSO. Assay buffer was then added directly to the 3 mM stock of substrate to prepare the 30 μM 2× working concentration (15 μM final concentration). The 2× Factor XIa stock solution was prepared by diluting 6.562 μM stock in 1× assay buffer for a 200 pM working stock solution (100 pM final concentration).
Test compound(s) were run in an 11-point, 3-fold serial dilution with a final top compound concentration of […]. Final DMSO in assay was 2% DMSO. FXIa and compound were pre-incubated for 30 minutes and substrate was then added to initiate the reaction. The assay was linear using 100 pM FXIa greater than 30 minutes. More specifically, the assay was run as follows: • 100 nL of 1 mM test compound was dispensed into a black 384-well non-binding Greiner BioOne 784900 plate for 10 μM final concentration with 1% DMSO final concentration; • 5 μL of 1× assay buffer was dispensed to column 24 (low control) and 5 μL 2× Factor XIa solution was dispensed to columns 1-23 (column 23 high control); • the plate was centrifuged with a “cover” plate at 500 rpm for 1 min • the plate was pre-incubated for 30 minutes at room temperature with plate covered; • 5 μL of 2× 5Fam-[…]-K5Tamra peptide substrate was dispensed into the entire plate, columns 1-24; • the plate was centrifuged with a cover plate at 500 rpm for 1 min; • the plate was read kinetically monitoring fluorescence intensity on the BMG PHERAStar at room temperature, using fluorescence module F1 485 mm/520 mm.
Percent inhibition (IC50) curves were generated per compound tested, and data was analyzed using a 4-parameter logistic fit using GeneData Screener. […]

[1] = Reactive metabolite study in human liver microsomes (GSH/KCN trapping); format: in vitro ADME; details: human liver microsomes 1 mg/mL protein, 10 μM substrate, NADPH, 1 mM GSH, 1 mM KCN, 37° C., 60 min
Method: Reactive Metabolite Study in Human Liver Microsomes
The compound of formula (I-A) was assessed for bioactivation in HLM using GSH and KCN as trapping agents. The compound was incubated in human liver microsomes supplemented with NADPH, KCN and GSH at 37° C. for 60 min. The incubations were conducted with 1 mg/mL protein, 10 μM substrate, 1 mM GSH (non-labeled and labeled at 3:1) and KCN 1 mM (non-labeled and labeled at 3:1) in a total volume of 1 mL. Nefazodone (10 μM) was incubated under the same conditions as a positive control. After incubations, protein precipitation was performed for extraction of the metabolites by mixing with 5× volume of acetonitrile. The proteins were pelleted by centrifugation (3000 rpm, 10 minutes, 4° C.) and the supernatants were transferred into clean test tubes and evaporated to dryness under a gentle stream of nitrogen. The resulting residues were reconstituted in 300 μL of solvent mixture of water:acetonitrile (8:2 v/v) containing 0.1% formic acid prior to filtration using 0.45 μm nylon filter at 10,000×g at room temperature for 3 minutes. The filtrate was transferred to a 96-well plate for liquid chromatography/tandem mass spectrometric (LC-MS/MS) analysis.
LC-MS/MS analysis: Agilent 1260 Infinity UHPLC was coupled to a Bruker Q-TOF. The mass spectrometers were operated in a positive electrospray ionization mode. […]

CYP3A4 = biological target: T1, CYP3A4 (Homo sapiens, UniProt P08684); assay: Assessment of TDI potential using the IC50 shift method; format: in vitro ADME; details: CYP3A4 (testosterone)
T1 construct: Frozen human liver microsomes (HLM) were thawed at 37° C; from tissue; host or cells: human liver microsomes
T1 sequence (P08684 whole entry): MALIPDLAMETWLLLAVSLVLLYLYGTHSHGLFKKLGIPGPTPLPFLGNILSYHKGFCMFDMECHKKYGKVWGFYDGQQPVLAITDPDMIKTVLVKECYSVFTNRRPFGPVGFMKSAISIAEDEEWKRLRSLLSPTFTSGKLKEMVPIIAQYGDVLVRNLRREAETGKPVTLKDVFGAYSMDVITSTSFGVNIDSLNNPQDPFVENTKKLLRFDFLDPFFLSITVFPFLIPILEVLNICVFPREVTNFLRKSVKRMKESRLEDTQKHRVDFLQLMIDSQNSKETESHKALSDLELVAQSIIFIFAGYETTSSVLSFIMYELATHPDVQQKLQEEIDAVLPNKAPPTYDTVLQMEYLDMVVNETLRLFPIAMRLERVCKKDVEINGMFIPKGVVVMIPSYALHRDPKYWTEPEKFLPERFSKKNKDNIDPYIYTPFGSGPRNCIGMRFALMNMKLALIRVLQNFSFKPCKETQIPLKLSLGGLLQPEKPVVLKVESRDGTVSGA
Method: Assessment of TDI Potential Using the IC50 Shift Method
To establish the potential for TDI of a particular P450 isozyme, the test compound is preincubated over a concentration range (typically 0.04 to 10 μM) with HLMs in the presence of cofactor NADPH for 30 minutes. After pre-incubation, a probe substrate known to be specifically metabolized to a defined metabolite by the isoform under investigation is then added at fixed concentration. Following a pre-defined incubation period (e.g. 10 minutes for the CYP3A4 testosterone assay), the reaction is terminated by addition of a suitable organic solvent (typically, acetonitrile) containing an internal standard. The samples are centrifuged prior to analysis by LC-MS/MS analysis and IC50 TDI value is calculated using curve fitting. This is compared to the IC50 for reversible inhibition, obtained when the pre-incubation step is performed in the absence of […] (IC50 Rev). A leftwards shift in the IC50 (i.e. increased inhibition) upon pre-incubation indicates the potential for TDI of that isozyme. The IC50 shift value is calculated as the ratio of IC50 Rev/IC50 TDI.
The assay was performed on a fully automated Tecan robotic system. Sample analysis was performed via LC-MS/MSMS using stable-labelled internal standard of the probe substrate metabolite.

Factor XIa, sequence (P03951 388-625 limits assumed): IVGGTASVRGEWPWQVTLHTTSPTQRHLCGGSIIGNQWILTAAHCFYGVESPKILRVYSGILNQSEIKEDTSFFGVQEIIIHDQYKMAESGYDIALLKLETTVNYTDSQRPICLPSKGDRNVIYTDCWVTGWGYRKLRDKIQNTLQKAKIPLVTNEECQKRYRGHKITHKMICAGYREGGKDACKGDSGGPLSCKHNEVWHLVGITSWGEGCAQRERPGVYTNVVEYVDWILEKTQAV
Factor XIa, sequence (P03951 19-387 partner limits assumed): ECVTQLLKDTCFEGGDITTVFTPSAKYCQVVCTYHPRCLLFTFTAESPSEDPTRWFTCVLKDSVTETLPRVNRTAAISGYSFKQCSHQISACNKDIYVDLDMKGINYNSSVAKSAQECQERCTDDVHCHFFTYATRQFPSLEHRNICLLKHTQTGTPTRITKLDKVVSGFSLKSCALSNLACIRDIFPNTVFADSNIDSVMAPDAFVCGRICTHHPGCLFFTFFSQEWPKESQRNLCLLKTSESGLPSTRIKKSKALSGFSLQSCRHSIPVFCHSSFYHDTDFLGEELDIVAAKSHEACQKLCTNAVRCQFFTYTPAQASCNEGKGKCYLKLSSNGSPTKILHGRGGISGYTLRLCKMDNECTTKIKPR

SMILES	IC50 (Factor XIa) [µM]	formation of GSH adducts or KCN adducts [1]	% maximum concentration, without pre-incubation (CYP3A4; HLM) [%]	% maximum concentration, with pre-incubation (CYP3A4; HLM, 30 minutes pre-incubation) [%]	IC50 (CYP3A4; HLM, 30 minutes pre-incubation with NADPH, read-out: IC50 with pre-incubation) [µM]	IC50 (CYP3A4; HLM, standard solvent conditions, read-out: IC50 without pre-incubation) [µM]	IC50 shift (CYP3A4; ratio of IC50 Rev/IC50 TDI)
O=C(O)c1nccc(-c2cnc([C@@H]3CC[C@@H]4CC(c5c(-n6cnnn6)ccc(Cl)c5F)=CC(=O)N43)[nH]2)c1F [Compound of formula (II-A), 4-(2-((3S,8aR)-7-(3-chloro-2-fluoro-6-(1H-tetrazol-1-yl)phenyl)-5-oxo-1,2,3,5,8,8a-hexahydroindolizin-3-yl)-1H-imidazol-5-yl)-3-fluoropicolinic acid]	0.0003						
O=C1C=C(c2c(-n3cnnn3)ccc(Cl)c2F)C[C@H]2CC[C@@H](c3ncc(-c4ccnc(CO)c4F)[nH]3)N12 [Compound of formula (I-A), (3S,8aR)-7-(3-Chloro-2-fluoro-6-(1H-tetrazol-1-yl)phenyl)-3-(5-(3-fluoro-2-(hydroxymethyl)pyridin-4-yl)-1H-imidazol-2-yl)-2,3,8,8a-tetrahydroindolizin-5(1H)-one]		did not form GSH adducts or KCN adducts	68.2	62.8	17.5 ± 2.5	12.2 ± 1.4	0.70
